Results as given in US6004933A, “Cysteine protease inhibitors” (Cortech Inc., priority 1998, dated 1999).
Read-outs that look alike come from different tables or passages of the source.

Columns and labels:
[1] = molecular target: T1, ICE (Caspase 1) (Homo sapiens, UniProt P29466); test: THP-1 assay: IL-1β release after LPS stimulation (assay for ICE inhibition); format: cell-based; conditions: for IC50: LPS 1 ug/ml, 4 hr, ELISA, read-out: IC50 of reduction of IL1β release from THP1 cell line
T1 construct: endogenous in cells; host or cells: THP-1
T1 sequence (P29466 120-297 limits assumed): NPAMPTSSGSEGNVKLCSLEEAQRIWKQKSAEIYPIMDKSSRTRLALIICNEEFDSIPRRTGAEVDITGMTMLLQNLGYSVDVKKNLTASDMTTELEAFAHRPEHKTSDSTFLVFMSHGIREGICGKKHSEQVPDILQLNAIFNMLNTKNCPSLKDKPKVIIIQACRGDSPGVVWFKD
T1 sequence (P29466 317-404 limits assumed): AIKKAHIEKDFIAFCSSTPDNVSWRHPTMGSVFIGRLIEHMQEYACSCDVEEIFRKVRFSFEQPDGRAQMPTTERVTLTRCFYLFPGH
From the text: (§1) To examine the ability of the caspase family inhibitors, CQ-0010 and CQ-0011, to inhibit human IL-1β production, two different assays were employed. In the first, the human monocytic cell line, THP-1, was stimulated with E. coli lipopolysaccharide (LPS serotype 0127-88; Sigma Chemical Co., St. Louis, Mo.) in the presence and absence of the inhibitors. This cell line synthesizes and secretes IL-1β and TNFα as well as other cytokines upon LPS stimulation. The second assay used freshly-isolated human whole blood similarly stimulated with LPS.
(§2) Two×10^6 THP-1 cells were added to 24 well plates in 1 ml RPMI supplemented with 1% FCS, glutamine and 5×10^-5 M mercaptoethanol. Two-fold serial dilutions of the inhibitors, CQ-0010, CQ-0011 and the commmercially available Ac-YVAD-CHO (Biomol Research Laboratories Inc., Plymouth Meeting, Pa.), were preincubated with the cells for 15 min at 37° C. LPS was then added to a final concentration of 1 ug/ml and the plates incubated for 4 hr at 37° C. All incubations were carried out in a humidified incubator with 5% CO2 in air.
(§3) Supernatants were harvested after 4 hr and assayed by ELISA for the presence of TNFα and IL-1β using commercially available kits (PerSeptive Biosystems, Framingham, Mass. and R&D Systems, Minneapolis, Minn., respectively).

[2] = molecular target: granzyme B (Homo sapiens, UniProt P10144); test: Granzyme B inhibition, photometric, Succ-AAPD-pNA; format: biochemical; conditions: 20 μM Succ-AAPD-pNA, 1 mM DTT
granzyme B, sequence (P10144 21-247, species assumed): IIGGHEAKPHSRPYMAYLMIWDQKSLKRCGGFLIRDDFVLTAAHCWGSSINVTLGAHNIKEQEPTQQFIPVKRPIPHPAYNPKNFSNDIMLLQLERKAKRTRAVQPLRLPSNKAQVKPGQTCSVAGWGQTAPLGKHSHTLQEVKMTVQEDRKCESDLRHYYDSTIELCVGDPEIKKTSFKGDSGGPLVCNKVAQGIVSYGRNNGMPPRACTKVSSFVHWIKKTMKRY
Description: (§4) Inhibition constants were measured photometrically for YAMA (caspase 3), Lap3 (caspase 7), FLICE (caspase 8), Mch2 (caspase 6) and granzyme B. The buffer used for all enzymes consisted of 50 mM Hepes, 100 mM sodium chloride, 10% (v/v) sucrose, 0.1% (v/v) CHAPS and 10 mM dithiothreitol (DTT). In the case of granzyme B, only 1 mM DTT was used.
(§5) Enzymes were incubated at 37° C. for 10 minutes in 100 μL well plates and synthetic substrate and inhibitor were added simultaneously. Final substrate concentration was 20 μM in all cases. The synthetic substrate Ac-DEVD-pNA was used for all caspases and Succ-AAPD-pNA was used for granzyme B. The appearance of product was monitored over 10 minutes at 410 nm using a Spectromax 340 and IC50 curves were calculated from the initial slopes at varying inhibitor concentrations and inhibition constants were calculated.

[3] = molecular target: T2, Mch2 (Caspase 6) (Homo sapiens, UniProt P55212); test: Caspase inhibition, photometric, Ac-DEVD-pNA; format: biochemical; conditions: 20 μM Ac-DEVD-pNA, 37° C.
T2 sequence (P55212 24-179 limits assumed): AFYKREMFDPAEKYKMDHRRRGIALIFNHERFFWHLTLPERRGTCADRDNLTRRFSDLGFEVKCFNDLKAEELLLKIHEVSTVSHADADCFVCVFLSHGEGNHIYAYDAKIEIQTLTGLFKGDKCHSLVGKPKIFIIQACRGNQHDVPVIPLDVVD
T2 sequence (P55212 194-293 limits assumed): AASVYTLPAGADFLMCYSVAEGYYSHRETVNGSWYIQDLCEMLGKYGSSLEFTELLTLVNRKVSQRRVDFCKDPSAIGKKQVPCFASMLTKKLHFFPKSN
Description: as §4, §5

[4] = molecular target: T3, Lap3 (Mch3, Caspase 7) (Homo sapiens, UniProt P55210); test: Caspase inhibition, photometric, Ac-DEVD-pNA; format: biochemical; conditions: 20 μM Ac-DEVD-pNA, 37° C.
T3 sequence (P55210 24-198 limits assumed): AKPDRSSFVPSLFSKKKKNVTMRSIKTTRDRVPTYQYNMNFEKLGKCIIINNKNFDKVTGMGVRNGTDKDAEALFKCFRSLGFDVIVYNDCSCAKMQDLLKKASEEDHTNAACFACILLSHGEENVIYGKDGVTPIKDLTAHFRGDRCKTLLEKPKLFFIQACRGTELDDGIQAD
T3 sequence (P55210 207-303 limits assumed): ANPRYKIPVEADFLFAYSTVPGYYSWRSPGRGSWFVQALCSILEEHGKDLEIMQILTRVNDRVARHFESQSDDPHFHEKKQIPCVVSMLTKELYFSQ
Description: as §4, §5

[5] = molecular target: FLICE (Mch5, Caspase 8) (Homo sapiens, UniProt Q14790); test: Caspase inhibition, photometric, Ac-DEVD-pNA; format: biochemical
FLICE (Mch5, Caspase 8), sequence (Q14790 217-374 limits assumed, species assumed): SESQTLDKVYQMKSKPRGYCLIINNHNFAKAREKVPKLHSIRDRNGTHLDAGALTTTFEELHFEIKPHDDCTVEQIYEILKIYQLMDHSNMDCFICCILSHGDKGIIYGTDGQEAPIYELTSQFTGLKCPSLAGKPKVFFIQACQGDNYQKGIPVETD
FLICE (Mch5, Caspase 8), sequence (Q14790 385-479 limits assumed, species assumed): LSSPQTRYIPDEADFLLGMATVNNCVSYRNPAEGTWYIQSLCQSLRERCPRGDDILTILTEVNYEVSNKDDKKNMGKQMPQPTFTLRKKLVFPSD
Description: as §4, §5

[6] = molecular target: T4, YAMA (CPP32, Caspase 3) (Homo sapiens, UniProt P42574); test: Caspase inhibition, photometric, Ac-DEVD-pNA; format: biochemical; conditions: 20 μM Ac-DEVD-pNA, 37° C.
T4 sequence (P42574 29-175 limits assumed): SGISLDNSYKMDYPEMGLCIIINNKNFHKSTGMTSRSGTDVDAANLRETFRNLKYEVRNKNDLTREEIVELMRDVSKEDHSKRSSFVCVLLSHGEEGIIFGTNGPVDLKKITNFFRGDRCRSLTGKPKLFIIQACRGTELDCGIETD
T4 sequence (P42574 176-277 limits assumed): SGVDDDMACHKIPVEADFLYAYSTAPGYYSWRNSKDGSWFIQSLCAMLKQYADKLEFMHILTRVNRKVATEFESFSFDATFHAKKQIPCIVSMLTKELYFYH
Description: as §4, §5

[7] = system: TNFα; test: THP-1 assay: TNFα levels after LPS stimulation; format: cell-based, human; conditions: THP-1 cells, results not shown
From the text: as §1, §2, §3

[8] = molecular target: T1, ICE (Caspase 1); test: Human whole blood assay: IL-1β release after LPS stimulation (assay for ICE inhibition); format: cell-based; conditions: LPS 10 or 100 ug/ml, 4 hr, ELISA, read-out: IC50 of reduction of IL1β release in whole blood assay
From the text: as §1
Heparinized whole blood (19.7 U heparin per ml) from healthy volunteers was collected and dispensed into 12×75 mm polystyrene tubes (0.25 ml per tube). The inhibitors, CQ-0010, CQ-0011 and Ac-YVAD-CHO were dissolved in DMSO, then diluted and added to the tubes in 0.25 ml and preincubated with the blood for 15 min at 37° C. LPS was then added to a final concentration of 10 or 100 ug/ml.
The tubes were loosely-capped and incubated in a water bath for 4 hr at 37° C. after which they were immersed briefly in an ice-water bath. Supernatants were harvested by centrifngation and stored at -70° C. The presence of TNFα and IL-1β was detected by commercially-available ELISA kits.

[9] = 20 μM Ac-DEVD-pNA, 37° C., read-out: Ki, FLICE (Mch5, Caspase 8)

In the case of `CC(=O)N[C@@H](Cc1ccc(O)cc1)C(=O)N[C@H](C(=O)N[C@@H](C)C(=O)NC(CC(=O)O)C(=O)c1nnc(-c2ccccc2)o1)C(C)C` (stereo partly drawn) [CQ-0010, Acetyl-L-tyrosinyl-L-valyl-N-[1-[2-[(5-phenyl)-1,3,4-oxadiazolyl]carbonyl]-2-carboxy-ethyl]-L-alanine amide], the IC50 [1] is reported as 0.3 µM, the “inhibition of IL-1β production” value ([1]; at 5 μM, THP-1 cells (FIG. 1)) is reported as “almost completely inhibiting” and the “Ki, Granzyme” value [2] is reported as “Not Active”. For the same compound, the Ki [3] was 33 µM, the “Ki, Lap3 (Mch3, Caspase 7)” value [4] was “Not Active” and the Ki [5, 9] was at most 0.02 µM. The Ki ([5]; read-out: Ki, FLICE) was at most 0.02 µM, the Ki [6] was 3.3 µM and the “effect on levels of TNFα produced” value [7] was “no dose-dependent effect”. The IC50 [8] was 0.3 to 0.5 µM.
With `CC(=O)N[C@@H](Cc1ccc(O)cc1)C(=O)N[C@H](C(=O)N[C@@H](C)C(=O)N[C@H](C=O)CC(=O)O)C(C)C` [Ac-YVAD-CHO, reference compound] the IC50 [1] was 0.3 µM, the “Ki, Granzyme” value [2] was “Not Active” and the Ki [3] was 100 µM. The “Ki, Lap3 (Mch3, Caspase 7)” value [4] was “Not Active”, the Ki [5, 9] was 3.7 µM and the Ki [6] was 20 µM. The IC50 [8] was 0.3 to 0.5 µM.
